Measured values as given in paper PMC8419391 (Journal of Pharmaceutical Investigation, 2021).
Converted amounts (≈) assume the structure as drawn. Read-outs that look alike come from different tables or passages of the source.

Key:
[1] = biological target: papain-like proteinase (PLpro) (Severe acute respiratory syndrome coronavirus 2, UniProt P0DTD1); experiment: Papain-like proteinase; type: biochemical, SARS-CoV2; conditions: read-out: PLpro (Inhibition %)
human red blood cells = experiment: Red blood cells toxicity; type: cell-based; conditions: Erythrocyte, 1 h, read-out: RBC IC50 (µg/ml)
ACE2 protein = ACE2 protein (Homo sapiens, UniProt Q9BYF1); experiment: ACE2 binding
ACE2 protein, sequence (Q9BYF1 18-805): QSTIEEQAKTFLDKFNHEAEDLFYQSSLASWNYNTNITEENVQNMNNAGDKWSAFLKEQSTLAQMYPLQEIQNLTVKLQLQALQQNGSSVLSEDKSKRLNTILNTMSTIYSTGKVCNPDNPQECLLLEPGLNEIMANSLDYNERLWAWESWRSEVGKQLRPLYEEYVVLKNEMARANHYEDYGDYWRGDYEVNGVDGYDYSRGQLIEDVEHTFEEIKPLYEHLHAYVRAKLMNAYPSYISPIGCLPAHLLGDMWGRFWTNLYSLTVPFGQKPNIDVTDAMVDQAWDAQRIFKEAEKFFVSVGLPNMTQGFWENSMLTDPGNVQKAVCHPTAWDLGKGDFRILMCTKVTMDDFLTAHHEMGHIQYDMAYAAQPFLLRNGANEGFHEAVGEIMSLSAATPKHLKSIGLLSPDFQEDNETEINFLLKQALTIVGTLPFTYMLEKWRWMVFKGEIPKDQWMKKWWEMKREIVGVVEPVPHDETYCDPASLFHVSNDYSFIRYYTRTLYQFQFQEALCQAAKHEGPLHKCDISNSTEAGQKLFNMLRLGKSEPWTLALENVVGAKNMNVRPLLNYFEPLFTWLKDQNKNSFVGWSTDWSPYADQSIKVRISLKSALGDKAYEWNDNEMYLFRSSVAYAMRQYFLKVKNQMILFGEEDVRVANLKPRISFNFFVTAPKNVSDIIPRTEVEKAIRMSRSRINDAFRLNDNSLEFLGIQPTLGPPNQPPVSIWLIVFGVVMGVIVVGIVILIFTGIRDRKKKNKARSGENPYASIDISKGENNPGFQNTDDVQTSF

SARS-CoV2 = experiment: microbe, parasite or virus in culture; type: cell-based; conditions: for EC50: Severe acute respiratory syndrome coronavirus 2, Vero C1008
Antioxidant activity = conditions: DPPH, 30 min in the dark
[2] = ref Zou et al. [2020], cited from earlier work
[3] = tested on: Peripheral blood mononuclear cells (PBMC); experiment: Peripheral blood mononuclear cells toxicity; type: cell-based; conditions: Homo sapiens, 24 h, read-out: PBMC IC50 (µg/ml)
[4] = In vivo HCQ toxicity elimination: CBC profile and blood chemistry; conditions: mice, oral
Candida albicans EMCC105 [5] = experiment: Turbidity assay; type: cell-based
Candida albicans EMCC105 [6] = experiment: Agar well diffusion assay; type: cell-based
[7] = tested on: Staphylococcus aureus ATCC25923; experiment: Agar well diffusion assay; type: cell-based
[8] = tested on: klebsila pneumonia ATCC700603; experiment: Turbidity assay; type: cell-based
[9] = tested on: Streptococcus pyogenes EMCC1772; experiment: Turbidity assay; type: cell-based
white blood cells (WBC) = experiment: Elimination of HCQ toxicity: HCQ induced WBC cytotoxicity; type: cell-based; conditions: HCQ 200 µg/ml
[10] = tested on: Streptococcus pyogenes EMCC1772; experiment: Agar well diffusion assay; type: cell-based
red blood cells = experiment: Elimination of HCQ toxicity: HCQ induced RBC hemolysis; conditions: HCQ 27.5 µg/ml
BetaCoV E-gene = type: cell-based, SARS-CoV2
BetaCoV RdRp gene = type: cell-based, SARS-CoV2
[11] = tested on: klebsila pneumonia ATCC700603; experiment: Agar well diffusion assay; type: cell-based
[12] = biological target: SARS-CoV2 RBD / ACE2 protein complex (Severe acute respiratory syndrome coronavirus 2, UniProt P0DTC2); experiment: Spike protein RBD-ACE2 complex formation ELISA; type: binding
[13] = tested on: Staphylococcus aureus ATCC25923; experiment: Turbidity assay; type: cell-based
SARS-CoV2 ORF gene = type: cell-based

CCN(CCO)CCCC(C)Nc1ccnc2cc(Cl)ccc12 (stereo not drawn) [HCQ, hydroxychloroquine]
inhibition at 12.5 µg/mL [1]: 8.1 ± 0.74%
inhibition at 25 µg/mL [1]: 11.2 ± 0.39%
inhibition at 50 µg/mL [1]: 22.5 ± 0.15%
inhibition at 100 µg/mL [1]: 30 ± 0.23%
inhibition at 200 µg/mL [1]: 37 ± 0.42%
IC50 (human red blood cells): 52 ± 0.9 µg/mL (≈ 155 µM)
ACE2 (Binding %) (ACE2 protein; 12.5 µg/ml): 09.02 ± 0.50%
ACE2 (Binding %) (ACE2 protein; 200 µg/ml): 15.60 ± 1.40%
EC50/IC50% (SARS-CoV2): 27.5 ± 0.9%
Vero E6 reduction (%) (SARS-CoV2): 76.00 ± 1.8%
EC50 (SARS-CoV2): 0.39 ± 0.009 µg/mL (≈ 1.16 µM)
Antioxidants IC50 (Antioxidant activity): 362.7 ± 6.7 µg/mL
oral dose reaching the blood ([2]; oral): about 50%
accumulation in brain and spinal cord tissue, times higher than plasma level [2]: 30 times
accumulation in the liver and lung, times higher than plasma concentration [2]: 700 times
IC50 [3]: 3.2 ± 0.3 µg/mL (≈ 9.53 µM)

COc1ccc2cc3[n+](cc2c1OC)CCc1cc2c(cc1-3)OCO2 [BER, Berberine chloride hydrate]
prevention of HCQ adverse effect on co-administration with HCQ ([4]; blood chemistry): moderately prevented
effect on normal CBC parameters ([4]; p < 0.05): did not affect normal CBC parameters
MIC (Candida albicans EMCC105 [5]): 463 µg/mL
MIC (Candida albicans EMCC105 [6]): 1850 µg/mL
MIC [7]: 926 µg/mL
MIC [8]: 463 µg/mL
MIC [9]: 463 µg/mL
inhibition at 62.5 µg/mL [1]: 49.8 ± 0.19%
inhibition at 126 µg/mL [1]: 65.89 ± 0.17%
inhibition at 252 µg/mL [1]: 78.93 ± 0.36%
inhibition at 504 µg/mL [1]: 84.8 ± 0.12%
inhibition at 1008 µg/mL [1]: 93.26 ± 0.73%
prevention of HCQ cytotoxic effect towards WBC (white blood cells (WBC)): ~6.7 folds
MIC [10]: 463 µg/mL
decrease of the hemolytic activity induced by HCQ (red blood cells): 42.85%
E-gene down regulation (%) (BetaCoV E-gene; 2.5 µg/ml): 89.77 ± 3.5%
E-gene expression (BetaCoV E-gene; 2.5 µg/ml): 0.102 ± 0.0003
E-gene down regulation (%) (BetaCoV E-gene; 5 µg/ml): 99.30 ± 1.8%
E-gene expression (BetaCoV E-gene; 5 µg/ml): 0.007 ± 0.0005
E-gene down regulation (%) (BetaCoV E-gene; 10 µg/ml): 99.70 ± 4.5%
E-gene expression (BetaCoV E-gene; 10 µg/ml): 0.003 ± 0.0001
E-gene down regulation (%) (BetaCoV E-gene; 20 µg/ml): 99.98 ± 3.9%
E-gene expression (BetaCoV E-gene; 20 µg/ml): 0.0002 ± 0.00001
IC50 (human red blood cells): 1349 ± 10.3 µg/mL
RdRp down regulation (%) (BetaCoV RdRp gene; 2.5 µg/ml): 76.67 ± 2.9%
RdRp expression (BetaCoV RdRp gene; 2.5 µg/ml): 0.233 ± 0.001
RdRp down regulation (%) (BetaCoV RdRp gene; 5 µg/ml): 79.26 ± 3.5%
RdRp expression (BetaCoV RdRp gene; 5 µg/ml): 0.207 ± 0.002
RdRp down regulation (%) (BetaCoV RdRp gene; 10 µg/ml): 94.95 ± 6.9%
RdRp expression (BetaCoV RdRp gene; 10 µg/ml): 0.050 ± 0.0003
RdRp down regulation (%) (BetaCoV RdRp gene; 20 µg/ml): 99.89 ± 3.8%
RdRp expression (BetaCoV RdRp gene; 20 µg/ml): 0.001 ± 0.00009
MIC [11]: 1850 µg/mL
Spike protein- RBD- complex formation (Fold change) ([12]; 62.5 µg/ml): 03.88 ± 0.08 Fold change
Spike protein- RBD- complex formation (Fold change) ([12]; 126 µg/ml): 08.00 ± 0.10 Fold change
Spike protein- RBD- complex formation (Fold change) ([12]; 252 µg/ml): 08.50 ± 0.00 Fold change
Spike protein- RBD- complex formation (Fold change) ([12]; 504 µg/ml): 16.13 ± 0.20 Fold change
Spike protein- RBD- complex formation (Fold change) ([12]; 1008 µg/ml): 16.13 ± 0.03 Fold change
MIC [13]: 463 µg/mL
ACE2 (Binding %) (ACE2 protein; 62.5 µg/ml): 13.10 ± 0.07%
ACE2 (Binding %) (ACE2 protein; 126 µg/ml): 13.10 ± 0.90%
ACE2 (Binding %) (ACE2 protein; 252 µg/ml): 13.90 ± 1.10%
ACE2 (Binding %) (ACE2 protein; 504 µg/ml): 15.60 ± 1.60%
ACE2 (Binding %) (ACE2 protein; 1008 µg/ml): 15.60 ± 1.10%
Vero E6 reduction (%) (SARS-CoV2): 80.00 ± 1.7%
EC50 (SARS-CoV2): 16.7 ± 0.01 µg/mL
EC50/IC50% (SARS-CoV2; antiviral EC50 relative to Vero E6 IC50): 32.9 ± 0.4%
ORF gene down regulation (%) (SARS-CoV2 ORF gene; 2.5 µg/ml): 11.73 ± 0.1%
ORF gene expression (SARS-CoV2 ORF gene; 2.5 µg/ml): 0.88 ± 0.001
ORF gene down regulation (%) (SARS-CoV2 ORF gene; 5 µg/ml): 21.54 ± 0.2%
ORF gene expression (SARS-CoV2 ORF gene; 5 µg/ml): 0.79 ± 0.003
ORF gene down regulation (%) (SARS-CoV2 ORF gene; 10 µg/ml): 60.22 ± 0.8%
ORF gene expression (SARS-CoV2 ORF gene; 10 µg/ml): 0.39 ± 0.002
ORF gene down regulation (%) (SARS-CoV2 ORF gene; 20 µg/ml): 86.69 ± 0.1%
ORF gene expression (SARS-CoV2 ORF gene; 20 µg/ml): 0.13 ± 0.008
IC50 [3]: 22.2 ± 0.9 µg/mL
